Experiments:
[1] = tested on: Tyrosine-protein kinase ABL1 (Homo sapiens), P00519 [T315I]; details: Compound concentration 1000.0 nM
[2] = target: Bone morphogenetic protein receptor type-1A (Homo sapiens) (UniProt P36894); details: Compound concentration 1000.0 nM
[3] = target: Peripheral plasma membrane protein CASK (Homo sapiens) (UniProt O14936); details: Compound concentration 1000.0 nM
[4] = target: Cyclin-dependent kinase 11B (Homo sapiens) (UniProt P21127); details: Compound concentration 1000.0 nM
[5] = target: Macrophage colony-stimulating factor 1 receptor (Homo sapiens) (UniProt P07333); details: Compound concentration 1000.0 nM
[6] = target: Casein kinase II subunit alpha' (Homo sapiens) (UniProt P19784); details: Compound concentration 1000.0 nM
[7] = target: Death-associated protein kinase 3 (Homo sapiens) (UniProt O43293); details: Compound concentration 1000.0 nM
[8] = target: Epithelial discoidin domain-containing receptor 1 (Homo sapiens) (UniProt Q08345); details: Compound concentration 1000.0 nM
[9] = target: Epidermal growth factor receptor (Homo sapiens) (UniProt P00533); details: Compound concentration 1000.0 nM
[10] = tested on: Epidermal growth factor receptor (Homo sapiens), P00533 [UNDEFINED MUTATION]; details: Compound concentration 1000.0 nM
[11] = target: Receptor tyrosine-protein kinase erbB-4 (Homo sapiens) (UniProt Q15303); details: Compound concentration 1000.0 nM
[12] = tested on: Receptor-type tyrosine-protein kinase FLT3 (Homo sapiens), P36888 [UNDEFINED MUTATION]; details: Compound concentration 1000.0 nM
[13] = target: Cyclin-G-associated kinase (Homo sapiens) (UniProt O14976); details: Compound concentration 1000.0 nM
[14] = target: Rhodopsin kinase GRK1 (Homo sapiens) (UniProt Q15835); details: Compound concentration 1000.0 nM
[15] = target: Beta-adrenergic receptor kinase 1 (Homo sapiens) (UniProt P25098); details: Compound concentration 1000.0 nM
[16] = target: Glycogen synthase kinase-3 beta (Homo sapiens) (UniProt P49841); details: Compound concentration 1000.0 nM
[17] = target: Tyrosine-protein kinase HCK (Homo sapiens) (UniProt P08631); details: Compound concentration 1000.0 nM
[18] = target: Hormonally up-regulated neu tumor-associated kinase (Homo sapiens) (UniProt P57058); details: Compound concentration 1000.0 nM
[19] = target: Inhibitor of nuclear factor kappa-B kinase subunit alpha (Homo sapiens) (UniProt O15111); details: Compound concentration 1000.0 nM
[20] = target: Tyrosine-protein kinase JAK1 (Homo sapiens) (UniProt P23458); details: Compound concentration 1000.0 nM
[21] = target: Mitogen-activated protein kinase kinase kinase kinase 5 (Homo sapiens) (UniProt Q9Y4K4); details: Compound concentration 1000.0 nM
[22] = target: Myosin light chain kinase (Homo sapiens) (UniProt Q32MK0); details: Compound concentration 1000.0 nM
[23] = target: Serine/threonine-protein kinase MRCK beta (Homo sapiens) (UniProt Q9Y5S2); details: Compound concentration 1000.0 nM
[24] = target: Serine/threonine-protein kinase 4 (Homo sapiens) (UniProt Q13043); details: Compound concentration 1000.0 nM
[25] = target: Myosin light chain kinase, smooth muscle (Homo sapiens) (UniProt Q15746); details: Compound concentration 1000.0 nM
[26] = target: Serine/threonine-protein kinase 38 (Homo sapiens) (UniProt Q15208); details: Compound concentration 1000.0 nM
[27] = target: Serine/threonine-protein kinase 38-like (Homo sapiens) (UniProt Q9Y2H1); details: Compound concentration 1000.0 nM
[28] = target: Serine/threonine-protein kinase PAK 1 (Homo sapiens) (UniProt Q13153); details: Compound concentration 1000.0 nM
[29] = tested on: Phosphatidylinositol 4,5-bisphosphate 3-kinase catalytic subunit alpha isoform (Homo sapiens), P42336 [H1047Y]; details: Compound concentration 1000.0 nM
[30] = target: Phosphatidylinositol 4,5-bisphosphate 3-kinase catalytic subunit gamma isoform (Homo sapiens) (UniProt P48736); details: Compound concentration 1000.0 nM
[31] = target: Protein kinase C epsilon type (Homo sapiens) (UniProt Q02156); details: Compound concentration 1000.0 nM
[32] = target: Protein kinase C eta type (Homo sapiens) (UniProt P24723); details: Compound concentration 1000.0 nM
[33] = tested on: Proto-oncogene tyrosine-protein kinase receptor Ret (Homo sapiens), P07949 [M918T]; details: Compound concentration 1000.0 nM
[34] = target: Serine/threonine-protein kinase RIO3 (Homo sapiens) (UniProt O14730); details: Compound concentration 1000.0 nM
[35] = target: Ribosomal protein S6 kinase alpha-2 (Homo sapiens) (UniProt Q15349); details: Compound concentration 1000.0 nM
[36] = target: Serine/threonine-protein kinase Sgk3 (Homo sapiens) (UniProt Q96BR1); details: Compound concentration 1000.0 nM
[37] = target: Serine/threonine-protein kinase SIK1 (Homo sapiens) (UniProt P57059); details: Compound concentration 1000.0 nM
[38] = target: SRSF protein kinase 1 (Homo sapiens) (UniProt Q96SB4); details: Compound concentration 1000.0 nM
[39] = target: Mitogen-activated protein kinase kinase kinase 7 (Homo sapiens) (UniProt O43318); details: Compound concentration 1000.0 nM
[40] = target: NT-3 growth factor receptor (Homo sapiens) (UniProt Q16288); details: Compound concentration 1000.0 nM
[41] = target: Non-receptor tyrosine-protein kinase TYK2 (Homo sapiens) (UniProt P29597); details: Compound concentration 1000.0 nM
[42] = target: Vascular endothelial growth factor receptor 2 (Homo sapiens) (UniProt P35968); details: Compound concentration 1000.0 nM
[43] = target: 5-hydroxytryptamine receptor 2C (Homo sapiens) (UniProt P28335); details: Compound concentration 10.0 uM
[44] = target: 5-hydroxytryptamine receptor 3A (Homo sapiens) (UniProt P46098); details: Compound concentration 10.0 uM
[45] = target: Muscarinic acetylcholine receptor M2 (Homo sapiens) (UniProt P08172); details: Compound concentration 10.0 uM
Muscarinic acetylcholine receptor M2 (Homo sapiens), sequence (P08172 whole entry): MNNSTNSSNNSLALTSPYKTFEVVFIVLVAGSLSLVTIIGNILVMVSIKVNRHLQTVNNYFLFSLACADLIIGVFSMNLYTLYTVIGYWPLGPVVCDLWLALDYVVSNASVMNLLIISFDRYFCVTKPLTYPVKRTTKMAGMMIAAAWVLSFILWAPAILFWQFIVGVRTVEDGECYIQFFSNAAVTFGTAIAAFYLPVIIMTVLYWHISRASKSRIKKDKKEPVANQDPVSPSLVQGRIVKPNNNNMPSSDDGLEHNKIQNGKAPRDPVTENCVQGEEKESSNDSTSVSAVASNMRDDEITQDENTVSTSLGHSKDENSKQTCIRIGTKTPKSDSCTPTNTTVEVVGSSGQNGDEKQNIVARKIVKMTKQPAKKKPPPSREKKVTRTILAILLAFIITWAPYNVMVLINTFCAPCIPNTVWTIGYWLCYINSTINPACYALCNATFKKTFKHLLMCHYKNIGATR

Inhibitor of nuclear factor kappa-B kinase subunit alpha (Homo sapiens), sequence (O15111 whole entry): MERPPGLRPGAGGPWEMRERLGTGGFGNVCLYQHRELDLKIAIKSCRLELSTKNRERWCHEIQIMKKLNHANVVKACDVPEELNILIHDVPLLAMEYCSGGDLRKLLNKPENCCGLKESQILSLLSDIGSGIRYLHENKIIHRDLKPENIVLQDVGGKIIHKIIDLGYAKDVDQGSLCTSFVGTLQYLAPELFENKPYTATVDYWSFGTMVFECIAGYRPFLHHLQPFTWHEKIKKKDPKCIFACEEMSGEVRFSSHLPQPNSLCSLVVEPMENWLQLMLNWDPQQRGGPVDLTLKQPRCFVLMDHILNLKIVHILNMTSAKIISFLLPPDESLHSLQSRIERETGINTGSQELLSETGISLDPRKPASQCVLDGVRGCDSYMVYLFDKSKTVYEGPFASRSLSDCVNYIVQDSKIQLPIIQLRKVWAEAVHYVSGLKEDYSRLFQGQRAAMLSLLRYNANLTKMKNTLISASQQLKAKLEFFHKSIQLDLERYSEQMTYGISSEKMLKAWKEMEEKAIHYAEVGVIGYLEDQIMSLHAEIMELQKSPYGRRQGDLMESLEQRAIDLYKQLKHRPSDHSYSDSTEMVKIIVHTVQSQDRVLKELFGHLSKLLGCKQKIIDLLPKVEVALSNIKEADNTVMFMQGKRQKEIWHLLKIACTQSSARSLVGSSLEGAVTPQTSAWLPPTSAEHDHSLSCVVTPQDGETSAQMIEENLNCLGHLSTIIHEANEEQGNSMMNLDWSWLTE
Serine/threonine-protein kinase RIO3 (Homo sapiens), sequence (O14730 whole entry): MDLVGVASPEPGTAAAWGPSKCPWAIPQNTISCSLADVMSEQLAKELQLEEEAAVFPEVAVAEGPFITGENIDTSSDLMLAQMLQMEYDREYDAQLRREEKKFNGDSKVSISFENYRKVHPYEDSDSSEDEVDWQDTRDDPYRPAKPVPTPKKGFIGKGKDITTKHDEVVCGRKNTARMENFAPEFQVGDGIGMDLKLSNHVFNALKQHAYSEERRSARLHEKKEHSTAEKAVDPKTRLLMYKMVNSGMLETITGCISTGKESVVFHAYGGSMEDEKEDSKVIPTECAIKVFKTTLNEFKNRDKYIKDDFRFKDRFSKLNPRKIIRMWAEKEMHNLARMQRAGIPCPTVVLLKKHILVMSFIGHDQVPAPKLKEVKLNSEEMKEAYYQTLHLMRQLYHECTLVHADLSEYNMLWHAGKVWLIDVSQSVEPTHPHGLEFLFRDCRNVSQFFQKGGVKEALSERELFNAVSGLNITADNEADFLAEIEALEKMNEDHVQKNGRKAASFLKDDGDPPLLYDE
NT-3 growth factor receptor (Homo sapiens), sequence (Q16288 32-839 limits assumed): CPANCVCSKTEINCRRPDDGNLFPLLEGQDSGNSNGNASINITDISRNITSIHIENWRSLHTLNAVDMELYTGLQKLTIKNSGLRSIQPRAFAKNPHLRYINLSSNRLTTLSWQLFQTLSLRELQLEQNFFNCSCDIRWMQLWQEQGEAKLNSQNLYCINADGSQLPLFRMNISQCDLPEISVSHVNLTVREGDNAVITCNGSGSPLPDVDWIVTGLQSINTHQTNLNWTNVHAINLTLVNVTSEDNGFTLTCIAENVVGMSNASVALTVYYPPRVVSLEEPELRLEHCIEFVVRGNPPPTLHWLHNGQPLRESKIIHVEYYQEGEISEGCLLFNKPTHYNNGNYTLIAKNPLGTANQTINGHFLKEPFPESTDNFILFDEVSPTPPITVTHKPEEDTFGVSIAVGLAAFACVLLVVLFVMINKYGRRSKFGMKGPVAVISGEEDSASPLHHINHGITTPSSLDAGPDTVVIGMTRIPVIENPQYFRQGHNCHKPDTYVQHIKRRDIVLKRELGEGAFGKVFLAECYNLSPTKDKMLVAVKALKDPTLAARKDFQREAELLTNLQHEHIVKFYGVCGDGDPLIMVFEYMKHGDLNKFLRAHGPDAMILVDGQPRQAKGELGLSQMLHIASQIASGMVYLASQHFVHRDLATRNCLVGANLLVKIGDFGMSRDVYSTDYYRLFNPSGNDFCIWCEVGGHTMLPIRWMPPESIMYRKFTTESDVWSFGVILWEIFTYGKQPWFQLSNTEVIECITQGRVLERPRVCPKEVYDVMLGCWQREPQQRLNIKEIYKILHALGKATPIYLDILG
Tyrosine-protein kinase JAK1 (Homo sapiens), sequence (P23458 whole entry): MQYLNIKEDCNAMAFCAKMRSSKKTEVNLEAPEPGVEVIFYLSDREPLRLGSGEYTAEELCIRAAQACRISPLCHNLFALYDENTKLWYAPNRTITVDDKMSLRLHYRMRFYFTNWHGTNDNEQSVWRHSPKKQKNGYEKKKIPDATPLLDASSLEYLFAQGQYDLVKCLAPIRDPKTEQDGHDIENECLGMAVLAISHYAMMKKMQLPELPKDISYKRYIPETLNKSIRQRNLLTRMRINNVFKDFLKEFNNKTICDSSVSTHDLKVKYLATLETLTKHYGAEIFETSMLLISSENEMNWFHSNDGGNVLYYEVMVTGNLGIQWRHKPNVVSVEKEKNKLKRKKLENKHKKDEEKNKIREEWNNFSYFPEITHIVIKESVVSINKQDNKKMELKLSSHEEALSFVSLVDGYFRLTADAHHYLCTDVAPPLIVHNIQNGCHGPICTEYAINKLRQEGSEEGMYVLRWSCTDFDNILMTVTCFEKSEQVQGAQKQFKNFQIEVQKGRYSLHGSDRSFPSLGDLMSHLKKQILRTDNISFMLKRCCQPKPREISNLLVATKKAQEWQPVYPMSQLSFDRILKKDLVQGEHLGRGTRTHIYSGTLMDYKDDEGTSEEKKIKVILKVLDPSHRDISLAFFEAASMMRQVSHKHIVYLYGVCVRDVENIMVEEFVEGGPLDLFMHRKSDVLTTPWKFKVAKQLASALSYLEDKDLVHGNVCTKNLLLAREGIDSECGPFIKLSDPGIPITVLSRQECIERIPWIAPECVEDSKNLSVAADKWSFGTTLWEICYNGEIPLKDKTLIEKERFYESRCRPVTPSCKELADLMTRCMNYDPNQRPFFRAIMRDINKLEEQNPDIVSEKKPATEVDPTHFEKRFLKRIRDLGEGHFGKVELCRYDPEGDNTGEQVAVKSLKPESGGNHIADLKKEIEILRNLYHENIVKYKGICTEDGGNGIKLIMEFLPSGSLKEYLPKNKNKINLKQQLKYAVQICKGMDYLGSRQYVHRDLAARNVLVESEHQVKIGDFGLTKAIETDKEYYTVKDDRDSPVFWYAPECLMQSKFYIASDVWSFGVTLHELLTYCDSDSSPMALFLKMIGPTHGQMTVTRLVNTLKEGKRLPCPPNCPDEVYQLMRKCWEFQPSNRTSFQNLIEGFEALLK
Protein kinase C eta type (Homo sapiens), sequence (P24723 whole entry): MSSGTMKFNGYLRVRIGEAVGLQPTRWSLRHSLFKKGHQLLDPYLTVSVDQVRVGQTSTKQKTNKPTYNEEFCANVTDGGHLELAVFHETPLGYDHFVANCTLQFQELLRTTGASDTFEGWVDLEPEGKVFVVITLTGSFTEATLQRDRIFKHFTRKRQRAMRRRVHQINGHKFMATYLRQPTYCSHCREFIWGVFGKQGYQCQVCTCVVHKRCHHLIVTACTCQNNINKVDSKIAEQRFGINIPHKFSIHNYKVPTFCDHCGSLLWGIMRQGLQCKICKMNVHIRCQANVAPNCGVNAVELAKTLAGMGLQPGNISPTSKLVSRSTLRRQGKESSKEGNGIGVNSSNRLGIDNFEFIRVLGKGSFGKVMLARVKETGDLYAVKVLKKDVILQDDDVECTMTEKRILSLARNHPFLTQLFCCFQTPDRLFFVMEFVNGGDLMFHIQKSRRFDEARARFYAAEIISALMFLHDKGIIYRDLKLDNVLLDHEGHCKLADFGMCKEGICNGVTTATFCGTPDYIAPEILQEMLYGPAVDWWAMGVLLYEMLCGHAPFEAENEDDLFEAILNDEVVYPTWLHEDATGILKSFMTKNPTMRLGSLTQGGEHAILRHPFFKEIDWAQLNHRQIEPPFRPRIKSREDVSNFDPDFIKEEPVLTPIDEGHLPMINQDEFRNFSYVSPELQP
Casein kinase II subunit alpha' (Homo sapiens), sequence (P19784 whole entry, looked up): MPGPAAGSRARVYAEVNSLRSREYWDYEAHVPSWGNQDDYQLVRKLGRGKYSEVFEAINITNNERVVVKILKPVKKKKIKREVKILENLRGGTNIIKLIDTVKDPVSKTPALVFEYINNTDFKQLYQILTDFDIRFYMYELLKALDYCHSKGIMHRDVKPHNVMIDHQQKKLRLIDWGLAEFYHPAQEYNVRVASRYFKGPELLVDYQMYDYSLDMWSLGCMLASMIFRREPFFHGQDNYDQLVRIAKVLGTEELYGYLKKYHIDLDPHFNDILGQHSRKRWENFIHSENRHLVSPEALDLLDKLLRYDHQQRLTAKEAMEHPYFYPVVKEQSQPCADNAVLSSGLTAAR

In the case of `CC(=O)Nc1c(C(C)=O)c(=O)n(C)c2nc(-c3ccc(Cl)cc3Cl)c(-c3ccc(Cl)cc3)cc12` [NAPHTHYRIDINONE], the residual activity [1] is reported as 89%, the residual activity [2] is reported as 85% and the residual activity [3] is reported as 83%. The residual activity [4] was 83%, the residual activity [5] was 100% and the residual activity [6] was 100%. The residual activity [7] was 100%, the residual activity [8] was 100% and the residual activity [9] was 100%. The residual activity [10] was 100%, the residual activity [11] was 91% and the residual activity [12] was 100%. For the same molecule, the residual activity [13] was 100%, the residual activity [14] was 78% and the residual activity [15] was 84%. It also gave a residual activity [16] of 100%, a residual activity [17] of 100% and a residual activity [18] of 100%. It also gave a residual activity [19] of 100%, a residual activity [20] of 100% and a residual activity [21] of 100%. The residual activity [22] was 100%, the residual activity [23] was 100% and the residual activity [24] was 100%. The residual activity [25] was 100%, the residual activity [26] was 93% and the residual activity [27] was 87%. It also gave a residual activity [28] of 100%, a residual activity [29] of 100% and a residual activity [30] of 78%. For the same molecule, the residual activity [31] was 48%, the residual activity [32] was 100% and the residual activity [33] was 100%. For the same molecule, the residual activity [34] was 100%, the residual activity [35] was 100% and the residual activity [36] was 100%. It also gave a residual activity [37] of 100%, a residual activity [38] of 100% and a residual activity [39] of 100%. For the same molecule, the residual activity [40] was 100%, the residual activity [41] was 100% and the residual activity [42] was 94%. The inhibition [43] was 17.5%, the inhibition [44] was 5.67% and the inhibition [45] was -7.96%.
`CC(=O)c1c(NS(C)(=O)=O)c2cc(-c3ccc(Cl)cc3)c(-c3ccc(Cl)cc3Cl)nc2n(C)c1=O` [MRL-CB1-NC] was tested, and the residual activity [1] was 86%, the residual activity [2] was 95% and the residual activity [3] was 92%. It also gave a residual activity [4] of 84%, a residual activity [5] of 100% and a residual activity [6] of 100%. The residual activity [7] was 100%, the residual activity [8] was 100% and the residual activity [9] was 100%. The residual activity [10] was 100%, the residual activity [11] was 100% and the residual activity [12] was 87%. The residual activity [13] was 100%, the residual activity [14] was 84% and the residual activity [15] was 74%. For the same molecule, the residual activity [16] was 97%, the residual activity [17] was 100% and the residual activity [18] was 100%. The residual activity [19] was 100%, the residual activity [20] was 93% and the residual activity [21] was 100%. For the same molecule, the residual activity [22] was 91%, the residual activity [23] was 81% and the residual activity [24] was 100%. It also gave a residual activity [25] of 93%, a residual activity [26] of 77% and a residual activity [27] of 76%. It also gave a residual activity [28] of 96%, a residual activity [29] of 96% and a residual activity [30] of 82%. The residual activity [31] was 96%, the residual activity [32] was 91% and the residual activity [33] was 100%. It also gave a residual activity [34] of 96%, a residual activity [35] of 80% and a residual activity [36] of 79%. For the same molecule, the residual activity [37] was 100%, the residual activity [38] was 100% and the residual activity [39] was 83%. It also gave a residual activity [40] of 98%, a residual activity [41] of 89% and a residual activity [42] of 82%. For the same molecule, the inhibition [43] was 81.8%, the inhibition [44] was 3.2% and the inhibition [45] was -4.45%.
